Assay results published in patent US20150018384A1, “TREATMENT FOR HIGH CHOLESTEROL” (FibroGen, Inc., priority 2012, published 2015).

System: Cholesterol Biosynthesis Genes in the Mouse Liver
Assay: Microarray expression of cholesterol biosynthesis genes in mouse liver
Type: in vivo
Procedure: A number of PHI compounds were evaluated for their effect on the expression of cholesterol biosynthesis genes in mouse liver. […] Liver tissue was harvested and stored in RNALater (Life Technologies). Total RNA was isolated with Trizol (Life Technologies) and purified with RNEasy96 (Qiagen) according to the manufacturers' protocols. RNA concentration was measured by NanoDrop (Thermo), and quality was assessed by Bioanalyzer (Agilent).
Biotinylated microarray probe was prepared using the 3′IVT Express kit (Affymetrix) and hybridized to mouse 430A 2.0 arrays as recommended in the manufacturer's protocol. Arrays were stained, washed, and scanned using Affymetrix equipment and software. Three arrays were run for each treatment and time point, each representing the liver sample from one individual animal.
Animals were sacrificed 4 h or 8 h later. Each compound was tested in a separate animal study with separate controls. Liver tissue was harvested and stored in RNALater (Life Technologies). Total RNA was isolated with Trizol (Life Technologies) and purified with RNEasy96 (Qiagen) according to the manufacturers' protocols. RNA concentration was measured by NanoDrop (Thermo), and quality was assessed by Bioanalyzer (Agilent).
For microarray analysis, RNA from animals in each treatment group was pooled in pairs (n=3 pairs for 4 h vehicle, n=2 pairs for all other treatment groups, for a total of 13 arrays per compound study). This approach was used to improve the signal-to-noise ratio on microarrays. Biotinylated probe was prepared using the One-Cycle cDNA synthesis kit (Affymetrix) and hybridized to mouse 430A 2.0 arrays as recommended in the manufacturer's protocol. Arrays were stained, washed, and scanned using Affymetrix equipment and software.
Array quality was assessed with GeneChip Operating System and/or Command Console software (Affymetrix). CEL files were uploaded to GeneSpring 7.3.1 (Agilent) using GC-RMA baseline correction. Principal Components Analysis was used to identify and reject outlier arrays. Data are reported as fold-change compared to timepoint-matched vehicle controls from the same study. Values less than 1.0 indicate a reduction of RNA in the treated animal liver tissue.

Structure (SMILES): Cc1cccc(C)c1Oc1ccc2c(O)c(C(=O)NCC(=O)O)nc(C#N)c2c1 [Compound I, {[1-Cyano-7-(2,6-dimethyl-phenoxy)-4-hydroxy-isoquinoline-3-carbonyl]-amino}-acetic acid]
- 3-hydroxy-3-methylglutaryl-Coenzyme A reductase (Hmgcr) RNA expression (10 mg/kg oral, 4 h): 0.41 fold-change
- 3-hydroxy-3-methylglutaryl-Coenzyme A synthase 1 (Hmgcs1) RNA expression (10 mg/kg oral, 4 h): 1.43 fold-change
- 7-dehydrocholesterol reductase (Dhcr7) RNA expression (10 mg/kg oral, 4 h): 1.41 fold-change
- NAD(P) dependent steroid dehydrogenase-like (Nsdhl) RNA expression (10 mg/kg oral, 4 h): 1.66 fold-change
- acetyl-Coenzyme A acetyltransferase 2 (Acat2) RNA expression (10 mg/kg oral, 4 h): 1.21 fold-change
- cytochrome P450, family 51 (Cyp51) RNA expression (10 mg/kg oral, 4 h): 0.81 fold-change
- farnesyl diphosphate farnesyl transferase 1 (Fdft1) RNA expression (10 mg/kg oral, 4 h): 0.85 fold-change
- farnesyl diphosphate synthetase (Fdps) RNA expression (10 mg/kg oral, 4 h): 1.45 fold-change
- isopentenyl-diphosphate delta isomerase (Idi1) RNA expression (10 mg/kg oral, 4 h): 1.40 fold-change
- lanosterol synthase (Lss) RNA expression (10 mg/kg oral, 4 h): 0.74 fold-change
- mevalonate (diphospho) decarboxylase (Mvd) RNA expression (10 mg/kg oral, 4 h): 0.45 fold-change
- mevalonate kinase (Mvk) RNA expression (10 mg/kg oral, 4 h): 1.02 fold-change
- phosphomevalonate kinase (Pmvk) RNA expression (10 mg/kg oral, 4 h): 1.25 fold-change
- squalene epoxidase (Sqle) RNA expression (10 mg/kg oral, 4 h): 1.36 fold-change
- sterol-C4-methyl oxidase-like (Sc4mol) RNA expression (10 mg/kg oral, 4 h): 0.88 fold-change
- sterol-C5-desaturase (fungal ERG3, delta-5-desaturase) homolog (S. cerevisae) (Sc5d) RNA expression (10 mg/kg oral, 4 h): 0.87 fold-change
- 3-hydroxy-3-methylglutaryl-Coenzyme A reductase (Hmgcr) RNA expression (10 mg/kg oral, 8 h): 0.17 fold-change
- 3-hydroxy-3-methylglutaryl-Coenzyme A synthase 1 (Hmgcs1) RNA expression (10 mg/kg oral, 8 h): 0.19 fold-change
- 7-dehydrocholesterol reductase (Dhcr7) RNA expression (10 mg/kg oral, 8 h): 0.30 fold-change
- NAD(P) dependent steroid dehydrogenase-like (Nsdhl) RNA expression (10 mg/kg oral, 8 h): 0.21 fold-change
- acetyl-Coenzyme A acetyltransferase 2 (Acat2) RNA expression (10 mg/kg oral, 8 h): 0.43 fold-change
- cytochrome P450, family 51 (Cyp51) RNA expression (10 mg/kg oral, 8 h): 0.12 fold-change
- farnesyl diphosphate farnesyl transferase 1 (Fdft1) RNA expression (10 mg/kg oral, 8 h): 0.32 fold-change
- farnesyl diphosphate synthetase (Fdps) RNA expression (10 mg/kg oral, 8 h): 0.16 fold-change
- isopentenyl-diphosphate delta isomerase (Idi1) RNA expression (10 mg/kg oral, 8 h): 0.12 fold-change
- lanosterol synthase (Lss) RNA expression (10 mg/kg oral, 8 h): 0.28 fold-change
- mevalonate (diphospho) decarboxylase (Mvd) RNA expression (10 mg/kg oral, 8 h): 0.19 fold-change
- mevalonate kinase (Mvk) RNA expression (10 mg/kg oral, 8 h): 0.37 fold-change
- phosphomevalonate kinase (Pmvk) RNA expression (10 mg/kg oral, 8 h): 0.41 fold-change
- squalene epoxidase (Sqle) RNA expression (10 mg/kg oral, 8 h): 0.16 fold-change
- sterol-C4-methyl oxidase-like (Sc4mol) RNA expression (10 mg/kg oral, 8 h): 0.11 fold-change
- sterol-C5-desaturase (fungal ERG3, delta-5-desaturase) homolog (S. cerevisae) (Sc5d) RNA expression (10 mg/kg oral, 8 h): 0.54 fold-change

Structure (SMILES): CC(C)Oc1ccc2c(O)c(C(=O)NCC(=O)O)nc(C#N)c2c1 [Compound H, [(1-Cyano-4-hydroxy-7-isopropoxy-isoquinoline-3-carbonyl)-amino]-acetic acid]
- 3-hydroxy-3-methylglutaryl-Coenzyme A reductase (Hmgcr) RNA expression (60 mg/kg oral, 4 h): 0.23 fold-change
- 3-hydroxy-3-methylglutaryl-Coenzyme A synthase 1 (Hmgcs1) RNA expression (60 mg/kg oral, 4 h): 0.62 fold-change
- 7-dehydrocholesterol reductase (Dhcr7) RNA expression (60 mg/kg oral, 4 h): 0.83 fold-change
- NAD(P) dependent steroid dehydrogenase-like (Nsdhl) RNA expression (60 mg/kg oral, 4 h): 0.76 fold-change
- acetyl-Coenzyme A acetyltransferase 2 (Acat2) RNA expression (60 mg/kg oral, 4 h): 0.71 fold-change
- cytochrome P450, family 51 (Cyp51) RNA expression (60 mg/kg oral, 4 h): 0.66 fold-change
- farnesyl diphosphate farnesyl transferase 1 (Fdft1) RNA expression (60 mg/kg oral, 4 h): 0.59 fold-change
- farnesyl diphosphate synthetase (Fdps) RNA expression (60 mg/kg oral, 4 h): 0.69 fold-change
- isopentenyl-diphosphate delta isomerase (Idi1) RNA expression (60 mg/kg oral, 4 h): 0.63 fold-change
- lanosterol synthase (Lss) RNA expression (60 mg/kg oral, 4 h): 0.65 fold-change
- mevalonate (diphospho) decarboxylase (Mvd) RNA expression (60 mg/kg oral, 4 h): 0.45 fold-change
- mevalonate kinase (Mvk) RNA expression (60 mg/kg oral, 4 h): 0.74 fold-change
- phosphomevalonate kinase (Pmvk) RNA expression (60 mg/kg oral, 4 h): 0.71 fold-change
- squalene epoxidase (Sqle) RNA expression (60 mg/kg oral, 4 h): 0.95 fold-change
- sterol-C4-methyl oxidase-like (Sc4mol) RNA expression (60 mg/kg oral, 4 h): 0.50 fold-change
- sterol-C5-desaturase (fungal ERG3, delta-5-desaturase) homolog (S. cerevisae) (Sc5d) RNA expression (60 mg/kg oral, 4 h): 0.92 fold-change
- 3-hydroxy-3-methylglutaryl-Coenzyme A reductase (Hmgcr) RNA expression (60 mg/kg oral, 8 h): 0.17 fold-change
- 3-hydroxy-3-methylglutaryl-Coenzyme A synthase 1 (Hmgcs1) RNA expression (60 mg/kg oral, 8 h): 0.19 fold-change
- 7-dehydrocholesterol reductase (Dhcr7) RNA expression (60 mg/kg oral, 8 h): 0.39 fold-change
- NAD(P) dependent steroid dehydrogenase-like (Nsdhl) RNA expression (60 mg/kg oral, 8 h): 0.34 fold-change
- acetyl-Coenzyme A acetyltransferase 2 (Acat2) RNA expression (60 mg/kg oral, 8 h): 0.44 fold-change
- cytochrome P450, family 51 (Cyp51) RNA expression (60 mg/kg oral, 8 h): 0.28 fold-change
- farnesyl diphosphate farnesyl transferase 1 (Fdft1) RNA expression (60 mg/kg oral, 8 h): 0.33 fold-change
- farnesyl diphosphate synthetase (Fdps) RNA expression (60 mg/kg oral, 8 h): 0.24 fold-change
- isopentenyl-diphosphate delta isomerase (Idi1) RNA expression (60 mg/kg oral, 8 h): 0.28 fold-change
- lanosterol synthase (Lss) RNA expression (60 mg/kg oral, 8 h): 0.35 fold-change
- mevalonate (diphospho) decarboxylase (Mvd) RNA expression (60 mg/kg oral, 8 h): 0.24 fold-change
- mevalonate kinase (Mvk) RNA expression (60 mg/kg oral, 8 h): 0.37 fold-change
- phosphomevalonate kinase (Pmvk) RNA expression (60 mg/kg oral, 8 h): 0.5 fold-change
- squalene epoxidase (Sqle) RNA expression (60 mg/kg oral, 8 h): 0.30 fold-change
- sterol-C4-methyl oxidase-like (Sc4mol) RNA expression (60 mg/kg oral, 8 h): 0.19 fold-change
- sterol-C5-desaturase (fungal ERG3, delta-5-desaturase) homolog (S. cerevisae) (Sc5d) RNA expression (60 mg/kg oral, 8 h): 0.61 fold-change
